The conditions of data set [1]: cited from earlier work.
The conditions of data set [2]: cited from earlier work. The source holds these as a separate data set.
A short description of data set [3]: PK phase, single IV or PO dose of lacosamide in mice (Example 12). To be noted: male, CD-1, mouse, plasma. Format: in vivo, male CD-1 mice. From the text:
For the PK phase, male CD-1 mice were assigned to treatment groups according to the study design in Table Ex 12 below. IV dosing was done via tail vein injection and oral delivery was done with oral gavage tube.

Data set [4] has as its system motor coordination in rats. As to the kind of experiment: Rotarod, ER profile vs IR profile of lacosamide in rats (Example 15). Format: in vivo. As to the method:
It is hypothesized that reducing the rate of rise of plasma concentrations with the ER profile compared to the IR profile results in reduced CNS impairment. CNS side effects were measured as an impairment of motor coordination in rodents using the rotarod. The rotarod (Ugo Basile, Italy) is a device that allows for quantitative measurement of motor coordination in rodents. Animals experiencing CNS side effects such as dizziness would fall off the rotarod faster than normal animals.
An acceleration protocol was used for training and test sessions, wherein the rotarod was accelerated from 0-40 rpm over a 5 minute session. All rats were then surgically implanted subcutaneously with programmable pumps (iPRECIO, Durect Corporation, Cupertino, Calif.), per the manufacturer's instructions, under anesthesia and using aseptic techniques.
Three days following pump implantation surgery, all rats were tested on the rotarod to obtain baseline performance values. Rats were assigned to treatment groups such that the mean time spent on the rotarod was similar for each group. Four groups of rats were utilized in this study, with 8-10 rats per group:
The total pump infusion duration was 18 hours. Control animals (group 1) were infused with vehicle (20% N-methyl-2-pyrrolidone, NMP) using the same infusion protocol. […] Control animals (group 3) were implanted with pumps containing vehicle and were given an IP bolus of vehicle.
Immediately following the 18 hour pump infusion for the ER groups, or 1 hour after IP injection for the IR groups, rats were placed on the rotarod and the rotarod was accelerated from 0-40 rpm over a 5 minute session, using the built-in function of the equipment. Animals that stayed on the rotarod for the entire session were assigned a run-time of 300 seconds. The time that each animal stayed on the rotarod prior to falling was automatically recorded.
(In the rotarod test animals must keep their balance on a rotating rod.)

Data set [5] concerns motor coordination in mice. As to the kind of experiment: Rotarod test in mice, PD phase (Example 12). Type of data set: in vivo. As to the method:
The rotarod (Ugo Basile, […]) is a device that allows for quantitative measurement of motor coordination in rodents. Animals are pre-trained prior to testing on the rotarod.
24 hours prior to the test day, mice are trained to run on the accelerating rotarod for at least 120 s in two consecutive trials. The mice are given up to 12 trials to achieve this performance criterion. Any mice not meeting this criterion are excluded from the test study.
Mice are randomized to treatment groups (vehicle; IV: 3, 10 30 mg/kg; PO: 10, 30, 90 mg/kg). On the day of the test, the animals are dosed with test article and placed on the rotarod 5 minutes post-dosing. The rotarod is accelerated from 0-40 rpm over a 5 minute session, using the built-in function of the equipment. The rotarod test is repeated for each mouse at 15, 30 and 60 minutes post-drug administration. Animals that stay on the rotarod are assigned a run-time of 300 seconds. The time that each animal stays on the rotarod prior to falling is automatically recorded as the animal's fall latency.
The latency to fall time on the rotarod recorded for each animal is reported at each time point post-dose. Latency to fall is averaged (±SEM) across the 10 animals in each treatment group at each time point.

Data set [6] is described as follows: Lacosamide plasma pharmacokinetics, ER infusion vs IP bolus in rats (Example 15). Format: in vivo. To be noted: for Slope (rate of rise of plasma concentration): from initiation of drug administration; for Tmax: read-out: median Tmax; for AUC(0-t): read-out: AUC0-18.
Data set [7] concerns motor coordination in rats. The experiment in a line: Rotarod, IR vs ER subcutaneous infusion profile in rats (Example 14). Type of data set: in vivo. As to conditions: at Cmax. The method, then: The example investigates reducing the rate of rise of plasma concentrations with the ER profile compared to the IR profile results in reduced CNS impairment. CNS side effects are measured as an impairment of motor coordination in rodents using the rotarod. Performance of rodents in a battery of neurobehavioral tests conducted during the infusion period are used as secondary endpoints as measures of CNS impairment.
The infusion protocols are designed to produce pharmacokinetic profiles of lacosamide similar to that of IR lacosamide administered twice-a-day (BID) to humans (IR profile) or an extended release profile administered once-a-day (QD) to humans (ER profile) at varying doses administered as IR BID or ER QD.
Rats are pre-trained on the rotarod prior to testing and assigned to groups based on their body weights.
Following the period of acclimation, rats are surgically implanted with subcutaneous programmable pumps (iPRECIO), per the manufacturer's instructions. […]
On the test day at the specified time point, rats are placed on the rotarod and the rotarod is accelerated from 0-40 rpm over a 5 minute session, using the built-in function of the equipment. […] The time that each animal stays on the rotarod prior to falling is automatically recorded as the animal's fall latency. […]

The conditions of data set [8]: aqueous systems; cited from earlier work.

Where two headings read alike, the source gives them in different places. A value given as a limit tells only on which side of the number the result lay.

The source of these data is patent publication US10987324B2, “Methods and compositions for the treatment of seizure-related disorders” (Adamas Pharmaceuticals, Inc., priority 2015, dated 2021).

As a reminder, the Tmax is the time at which the peak concentration occurs. Regarding `CC[C@@H](C(N)=O)N1CCCC1=O` [levetiracetam, (S)-alpha-ethyl-2-oxo-pyrrolidine acetamide], the Tmax entry in data set [1] (fasted subjects) is “approximately one”. In addition, the “elimination / plasma / pharmacokinetic half-life” value in data set [1] (human) was “about 7 hours”; in data set [1] (human, listed as Levetiracetam), 6 to 8 h. In addition, in data set [1] (in vivo), the AUC0-24 is 300 to 350 µg·h/mL. Further, the renal excretion rate in data set [1] (mostly unmetabolized form) is on record as 0.6 mL/min/kg. For the same compound, the patients reporting somnolence entry in data set [2] (4000 mg daily, untitrated study) is given as “Approximately 45%”. Besides, the patients with somnolence in data set [2] (compared to 8% with placebo) is reported as 14.8%.

Take `CCCC(CCC)C(=O)O` [valproic acid, 2-propylpentanoic acid]: the “elimination / plasma / pharmacokinetic half-life” value in data set [1] (human) is 9 to 16 h.

Broadly, the Cmax is the peak of the concentration-time curve. For the compound `C=CC(N)CCC(=O)O` (racemic) [vigabatrin, (RS)-4-aminohex-5-enoic acid], in data set [1] (at steady state), the Cmax is 61000 ng/mL and the T1/2 was 7.5 h. Further, the “elimination / plasma / pharmacokinetic half-life” value in data set [1] (human) was “about 10 hours”. In addition, the Tmax result in data set [1] (oral dosing, human) is “approximately 1 hours”.

`CCCC(CCC)C(=O)O` [divalproex sodium]: the “elimination / plasma / pharmacokinetic half-life” value in data set [1] (human) is “about 15 hours”.

`NC(=O)N1c2ccccc2CC(O)c2ccccc21` (stereo not shown) [MDH, 10-monohydroxy metabolite]: the “elimination / plasma / pharmacokinetic half-life” value in data set [1] (human) was 9 h.

`NC(=O)N1c2ccccc2CC(=O)c2ccccc21` [oxcarbazepine, 10,11-dihydro-10-oxo-5H-dibenz(b,f)azepine-5-carboxamide]: in data set [1] (600 mg IR BID), the AUC0-24 was 16.8 µg·h/mL and the Cmax was 2720 ng/mL. Also, the “elimination / plasma / pharmacokinetic half-life” value in data set [1] (human) is “about 20 hours”. In data set [1] (human, listed as Oxcarbazepine), the “elimination / plasma / pharmacokinetic half-life” value is given as “approximately 2 hours”. Also, the Tmax entry in data set [1] (oral dosing, human) is listed as “approximately 3 hours”.

Regarding `CC(=O)N[C@H](CO)C(=O)NCc1ccccc1` [O-desmethyl metabolite], the “reduction of concentrations and amount excreted into urine” value in data set [1] (CYP2C19 poor metabolizers compared to extensive metabolizers) is reported as “about 70%”. In addition, the “elimination / plasma / pharmacokinetic half-life” value in data set [1] (human) was 15 to 23 h. The Tmax in data set [1] (oral dosing, human) is 0.5 to 12 h.

In the case of `COC[C@@H](NC(C)=O)C(=O)NCc1ccccc1` [lacosamide, R-2-acetamido-N-benzyl-3-methoxypropionamide], the Cmax in data set [3] (90 mg/kg oral dose) was around 40000 ng/mL; in data set [3] (single 10 mg/kg IV dose), around 15000 ng/mL; in data set [3] (single 30 mg/kg IV dose), around 40000 ng/mL; in data set [3] (single 30 mg/kg oral dose) it was around 15000 ng/mL; in data set [6] (rat, plasma, ip, 19 mg/kg, Group 4 (IR), PK satellite rats), 22000 ng/mL; in data set [6] (rat, plasma, ip, 122 mg/kg, Group 2 (ER), PK satellite rats), 19000 ng/mL. For the same compound, the time to peak (Tmax) was below 0.0833 h in data set [3] (IV route); around 0.25 h in data set [3] (oral route); 0.75 h in data set [6] (rat, plasma, 19 mg/kg, IP bolus, IR profile (Group 4), PK satellite rats); 15 h in data set [6] (rat, plasma, ip, 122 mg/kg, ER infusion protocol (Group 2), PK satellite rats). For the same compound, in data set [1] (human), the “elimination / plasma / pharmacokinetic half-life” value is “about 13 hours”. In addition, in data set [1] (in vivo), the “effect of CYP2C19 polymorphism on the pharmacokinetics” value is given as “no significant effect”. Besides, the “percent change from baseline in time on the rotarod vs vehicle” value in data set [4] (ER groups, p>0.05) is “not statistically different”. Moreover, the “increase in time on the rotarod from baseline” value in data set [4] (ER profile (group 2), vehicle 27% increase) was 45%. Also, in data set [4] (IR profile, IP bolus (group 4), vehicle 54% increase), the “reduction in time on the rotarod from baseline” value is 55%. Further, the “latency to fall, PO compared to IV” value in data set [5] (doses with equivalent Cmax but different Tmax (e.g. 30 mg/kg IV and 90 mg/kg PO)) is “greater latency to fall on the rotarod (less impairment)”. For the same compound, the “effect of an increase in dose on latency to fall” value in data set [5] (same route of administration (IV or PO)) is “decrease in the latency to fall time on the rotarod”. For the same compound, the “Slope (rate of rise of plasma concentration)” value was 1.4 µg/mL/h in data set [6] (Group 2 (ER)) and 62 µg/mL/h in data set [6] (Group 4 (IR)). Besides, the “reduction in the rate of the rise (slope) ER compared to IR” value in data set [6] (PK satellite rats) is given as 98%. Moreover, the concentration at 1 h in data set [6] (rat, plasma, intraperitoneal, 19 mg/kg, group 4 (IR profile)) was around 19000 ng/mL. The concentration at 18 h in data set [6] (rat, plasma, intraperitoneal, 122 mg/kg, group 2 (ER profile)) is around 19000 ng/mL. In addition, the AUC(0-t) in data set [6] (rat, plasma, ip, 19 mg/kg, Group 4 (IR)) turned out to be 18 µg·h/mL; in data set [6] (rat, plasma, ip, 122 mg/kg, Group 2 (ER), 18 hour infusion), 217 µg·h/mL. Also, the “time spent on the rotarod, IR profile compared to ER group” value in data set [7] (given dose level) is given as “significantly reduced time spent on the rotarod (i.e. greater impairment)”. Moreover, the “time spent on the rotarod vs dose” value in data set [7] (given infusion protocol, 400 vs 800 mg/day HED) is recorded as “decrease in a dose-dependent manner”. The solubility result in data set [8] was “about 20 mg/ml”.
